According to patent US20190142800A1, “SYNERGISTIC ANTIFUNGAL COMPOSITIONS AND METHODS THEREOF” (VYOME THERAPEUTICS LIMITED, priority 2016, published 2019):

Key:
[1] = test system: Trichophyton rubrum (ATCC-28188); assay: Checkerboard assay of fatty acid/ester with antifungals on Trichophyton rubrum (ATCC 28188); type: cell-based; parameters: key to FIC index: FIC index = sum of FICs; FIC = agent conc in well / agent MIC; settings: for MIC: Trichophyton rubrum, ATCC28188, agent alone
Experimental: (§1) The synergy is measured by determining the fractional inhibitory concentration (FIC) value of the combination. This experimental set up, called checkerboard method, allows measurement of a desired effect (inhibition of fungal growth in this case) at different combinations of various concentrations of the two agents (antifungal agent and fatty acid/ester). […] No agent is added to the penultimate column on the right and the bottom row. The final column on the right is used for growth control (only inoculum in broth) and sterility control (broth alone, no inoculum). […] FIC value for each agent in a particular well of the checkerboard layout was calculated by dividing the agent concentration in that well by the established MIC value of the agent against the test organism (Hsieh et al., Synergy assessed by checkerboard: A critical Analysis, Diagn. Microbiol. Infect Dis. (1993) 16:343-349). FIC values for both agents in a particular well were calculated in this way followed by determination of the FIC index (sum of the FICs of each drug in the concerned well). […] Agents Chemother. (2010) 54(2): 602-609].
(§2) Using the checkerboard layout experimental setup described above (FIG. 1A), various medium-chain fatty acids were tested for their ability to potentiate the activity of a known antifungal agent. Concentrations above and below the MIC of each test agent were tested using serial dilution. The same procedure was expanded to test combinations of various medium-chain fatty acids C-1 to C-14 (such caprylic acid, undecylenic acid and lauric acid) and esters thereof, with antifungal agents from various classes including azoles, allylamines, benzylamines, zinc pyrithione and piroctone olamine against both susceptible and resistant Trichophyton spp. (filamentous fungus) and Candida spp. (yeast).
(§3) Potentiation of the activity of antimycotic agents using ester derivatives of medium chain fatty acids was tested in a standard, well accepted in vitro assay system to check for synergy. This experimental set up, called checkerboard method, allows measurement of a desired effect (inhibition of fungal growth in this case) at different combinations of various concentrations of two agents. A chosen medium chain fatty acid (C-1 to C-14) or its ester derivative was tested for its ability to potentiate the activity of a known antifungal agent (various classes) using the checkerboard layout. Various concentrations above and below the MIC of each test agent were tested using serial dilution in Sabouraud dextrose broth. […] FIC value for a drug in a particular well of the checkerboard layout is calculated by dividing the drug concentration in that well by the established MIC value of the drug against the test organism (Hsieh et al., Synergy assessed by checkerboard: A critical Analysis, Diagn. Microbiol. Infect Dis. (1993) 16:343-349). FIC values for both test agents in a particular well are calculated in this way followed by determination of the FIC index (sum of the FICs of each drug in the concerned well).

[2] = test system: azole resistant C. albicans MTCC 227; assay: Checkerboard assay on azole resistant C. albicans MTCC 227; type: cell-based, Candida albicans; settings: for MIC: Candida albicans, MTCC227, agent alone
Experimental: as §1, with “FIC” for “FIC value for each agent in a particular well of the checkerboard layout was calculated by dividing the agent concentration in that well by the established MIC value of the agent against the test organism (Hsieh et al., Synergy assessed by checkerboard: A critical Analysis, Diagn. Microbiol. Infect Dis. (1993) 16:343-349). FIC”, “Chemother.” for “Chemother. (2010) 54(2): 602-609].”
as §2
as §3, with “FIC” for “FIC value for a drug in a particular well of the checkerboard layout is calculated by dividing the drug concentration in that well by the established MIC value of the drug against the test organism (Hsieh et al., Synergy assessed by checkerboard: A critical Analysis, Diagn. Microbiol. Infect Dis. (1993) 16:343-349). FIC”

[3] = agent's MIC in combination antifungal + caprylic acid (partner: other agent of same combination no.)
[4] = agent's MIC in combination antifungal + glyceryl monocaprylate (partner: other agent of same combination no.)
[5] = agent's MIC in combination antifungal + lauric acid (partner: other agent of same combination no.)
[6] = agent's MIC in combination antifungal + propylene glycol monocaprylate (partner: other agent of same combination no.)
[7] = agent's MIC in combination antifungal + propylene glycol monolaurate (partner: other agent of same combination no.)
[8] = agent's MIC in combination antifungal + undecylenic acid (partner: other agent of same combination no.)
[9] = antifungal in combination with caprylic acid
[10] = antifungal in combination with glyceryl monocaprylate
[11] = antifungal in combination with lauric acid
[12] = antifungal in combination with propylene glycol monocaprylate
[13] = antifungal in combination with propylene glycol monolaurate
[14] = antifungal in combination with undecylenic acid
[15] = combination antifungal + caprylic acid
[16] = combination antifungal + glyceryl monocaprylate
[17] = combination antifungal + lauric acid
[18] = combination antifungal + propylene glycol monocaprylate
[19] = combination antifungal + propylene glycol monolaurate
[20] = combination antifungal + undecylenic acid

**Q.** With `C=C1CCN([C@H](C)[C@](O)(Cn2cncn2)c2ccc(F)cc2F)CC1` [Efinaconazole] as the compound, how does the MIC ([1]; Table 1, caprylic acid series) read?
**A.** Its MIC is 0.125 µg/mL.

**Q.** What about the MIC ([1]; Table 2, propylene glycol monocaprylate series) of the same compound?
**A.** The MIC was 0.125 µg/mL.

**Q.** And the MIC ([1]; Table 3, glyceryl monocaprylate series)?
**A.** The MIC was 0.125 µg/mL.

**Q.** What about the MIC ([1]; Table 4, undecylenic acid (C11) series) of the same compound?
**A.** Its MIC is 0.03 µg/mL.

**Q.** And the MIC ([1]; Table 5, lauric acid (C12) series)?
**A.** The MIC was 0.03 µg/mL.

**Q.** What about the MIC ([1]; Table 6, propylene glycol monolaurate series) of the same compound?
**A.** Its MIC is 0.03 µg/mL.

**Q.** And the “Combination MIC” value [1, 3]?
**A.** Its value is 0.0625 µg/mL.

**Q.** And the “Combination MIC” value [1, 4]?
**A.** Its value is 0.0625 µg/mL.

**Q.** And the “Combination MIC” value [1, 5]?
**A.** Its value is 0.015 µg/mL.

**Q.** And the “Combination MIC” value [1, 6]?
**A.** The value was 0.007 µg/mL.

**Q.** What about the “Combination MIC” value [1, 7] of the same compound?
**A.** The value was 0.008 µg/mL.

**Q.** What about the “Combination MIC” value [1, 8] of the same compound?
**A.** The value was 0.015 µg/mL.

**Q.** What about the FIC index [1, 9] of the same compound?
**A.** Its FIC index is 0.625.

**Q.** What about the Interaction [1, 9] of the same compound?
**A.** Its Interaction is “Synergistic (Combinations that gave FIC indices less than 1 were designated “synergistic”)”.

**Q.** And the FIC index [1, 10]?
**A.** Its FIC index is 0.625.

**Q.** What about the Interaction [1, 10] of the same compound?
**A.** The Interaction was “Synergistic (Combinations that gave FIC indices less than 1 were designated “synergistic”)”.

**Q.** And the FIC index [1, 11]?
**A.** Its FIC index is 0.75.

**Q.** And the Interaction [1, 11]?
**A.** Its Interaction is “Synergistic (Combinations that gave FIC indices less than 1 were designated “synergistic”)”.

**Q.** What about the FIC index [1, 12] of the same compound?
**A.** The FIC index was 0.556.

**Q.** And the Interaction [1, 12]?
**A.** The Interaction was “Synergistic (Combinations that gave FIC indices less than 1 were designated “synergistic”)”.

**Q.** What about the FIC index [1, 13] of the same compound?
**A.** The FIC index was 0.76.

**Q.** What about the Interaction [1, 13] of the same compound?
**A.** The Interaction was “Synergistic (Combinations that gave FIC indices less than 1 were designated “synergistic”)”.

**Q.** And the FIC index [1, 14]?
**A.** The FIC index was 0.74.

**Q.** What about the Interaction [1, 14] of the same compound?
**A.** Its Interaction is “Synergistic (Combinations that gave FIC indices less than 1 were designated “synergistic”)”.

**Q.** And the FIC [1, 15]?
**A.** Its FIC is 0.5.

**Q.** What about the FIC [1, 16] of the same compound?
**A.** Its FIC is 0.5.

**Q.** What about the FIC [1, 17] of the same compound?
**A.** The FIC was 0.5.

**Q.** And the FIC [1, 18]?
**A.** Its FIC is 0.056.

**Q.** And the FIC [1, 19]?
**A.** Its FIC is 0.266.

**Q.** And the FIC [1, 20]?
**A.** Its FIC is 0.5.

**Q.** And the MIC ([2]; Table 9, caprylic acid (C8) series)?
**A.** Its MIC is 128 µg/mL.

**Q.** What about the MIC ([2]; Table 10, propylene glycol monocaprylate series) of the same compound?
**A.** Its MIC is 128 µg/mL.

**Q.** And the MIC ([2]; Table 11, glyceryl monocaprylate series)?
**A.** The MIC was 128 µg/mL.

**Q.** And the MIC ([2]; Table 12, undecylenic acid (C11) series)?
**A.** The MIC was 128 µg/mL.

**Q.** What about the MIC ([2]; Table 13, lauric acid (C12) series) of the same compound?
**A.** The MIC was 128 µg/mL.

**Q.** And the MIC ([2]; Table 14, propylene glycol monolaurate series)?
**A.** The MIC was 128 µg/mL.

**Q.** What about the “Combination MIC” value [2, 3] of the same compound?
**A.** Its value is 0.5 µg/mL.

**Q.** What about the “Combination MIC” value [2, 4] of the same compound?
**A.** Its value is 1 µg/mL.

**Q.** And the “Combination MIC” value [2, 5]?
**A.** The value was 0.5 µg/mL.

**Q.** And the “Combination MIC” value [2, 6]?
**A.** Its value is 4 µg/mL.

**Q.** And the “Combination MIC” value [2, 7]?
**A.** The value was 0.5 µg/mL.

**Q.** And the “Combination MIC” value [2, 8]?
**A.** The value was 4 µg/mL.

**Q.** And the FIC index [2, 9]?
**A.** Its FIC index is 0.3.

**Q.** What about the Interaction [2, 9] of the same compound?
**A.** The Interaction was “Synergistic (Combinations that gave FIC indices less than 1 were designated “synergistic”)”.

**Q.** What about the FIC index [2, 10] of the same compound?
**A.** The FIC index was 0.257.

**Q.** And the Interaction [2, 10]?
**A.** Its Interaction is “Synergistic (Combinations that gave FIC indices less than 1 were designated “synergistic”)”.

**Q.** What about the FIC index [2, 11] of the same compound?
**A.** Its FIC index is 0.128.

**Q.** And the Interaction [2, 11]?
**A.** Its Interaction is “Synergistic (Combinations that gave FIC indices less than 1 were designated “synergistic”)”.

**Q.** What about the FIC index [2, 12] of the same compound?
**A.** The FIC index was 0.281.

**Q.** What about the Interaction [2, 12] of the same compound?
**A.** The Interaction was “Synergistic (Combinations that gave FIC indices less than 1 were designated “synergistic”)”.

**Q.** What about the FIC index [2, 13] of the same compound?
**A.** The FIC index was 0.018.

**Q.** What about the Interaction [2, 13] of the same compound?
**A.** The Interaction was “Synergistic (Combinations that gave FIC indices less than 1 were designated “synergistic”)”.

**Q.** And the FIC index [2, 14]?
**A.** The FIC index was 0.093.

**Q.** And the Interaction [2, 14]?
**A.** Its Interaction is “Synergistic (Combinations that gave FIC indices less than 1 were designated “synergistic”)”.

**Q.** And the FIC [2, 15]?
**A.** The FIC was 0.062.

**Q.** And the FIC [2, 16]?
**A.** Its FIC is 0.007.

**Q.** What about the FIC [2, 17] of the same compound?
**A.** Its FIC is 0.003.

**Q.** What about the FIC [2, 18] of the same compound?
**A.** The FIC was 0.031.

**Q.** And the FIC [2, 19]?
**A.** Its FIC is 0.003.

**Q.** And the FIC [2, 20]?
**A.** Its FIC is 0.031.
